# In ChEMBL document CHEMBL1139763, “Pyrrolidines as potent functional agonists of the human melanocortin-4 receptor” (Bioorg Med Chem Lett, 2007):
# Columns and labels:
# Melanocortin receptor 4 [1] = target: T1, Melanocortin receptor 4 (Homo sapiens, UniProt P32245); experiment: Displacement of [125I]NDP-MSH from human MC4R expressed in HEK293 cells; assay type: cell-based
# Melanocortin receptor 4 [2] = target: T1, Melanocortin receptor 4; experiment: Intrinsic activity at human MC4R expressed in HEK293 cells assessed as cAMP accumulation relative to alphaMSH; assay type: functional, cell-based
# Melanocortin receptor 4 [3] = target: T1, Melanocortin receptor 4; experiment: Agonist activity at human MC4R expressed in HEK293 cells assessed as cAMP accumulation; assay type: functional, cell-based
# T1 sequence (P32245 whole entry): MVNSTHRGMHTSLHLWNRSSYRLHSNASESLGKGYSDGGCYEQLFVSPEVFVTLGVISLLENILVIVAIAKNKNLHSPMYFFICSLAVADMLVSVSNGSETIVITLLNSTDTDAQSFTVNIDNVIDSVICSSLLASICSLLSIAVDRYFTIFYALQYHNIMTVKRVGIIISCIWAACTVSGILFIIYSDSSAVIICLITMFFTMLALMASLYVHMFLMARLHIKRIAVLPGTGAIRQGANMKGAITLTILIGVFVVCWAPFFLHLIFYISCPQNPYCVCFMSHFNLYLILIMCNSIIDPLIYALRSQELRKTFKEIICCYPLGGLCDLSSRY
SMILES,Ki (Melanocortin receptor 4 [1]),Intrinsic activity (Melanocortin receptor 4 [2]),EC50 (Melanocortin receptor 4 [3])
Cc1ccc(N2CCN(C(=O)[C@@H]3CN(C(C)C)C[C@H]3c3ccc(Cl)cc3)CC2)c([C@H](C(C)C)N(C)C)c1,13 nM,44%,–
CC(C)N1C[C@@H](C(=O)N2CCN(c3ccccc3CN3CCCC3)CC2)[C@H](c2ccc(Cl)cc2)C1,550 nM,–,–
CC(C)N1C[C@@H](C(=O)N2CCN(c3ccccc3CN(C)C)CC2)[C@H](c2ccc(Cl)cc2)C1,1200 nM,–,–
CC(C)N1C[C@@H](C(=O)N2CCN(c3ccccc3CNS(C)(=O)=O)CC2)[C@H](c2ccc(Cl)cc2)C1,1700 nM,–,–
CNCC(=O)N[C@@H](CC(C)C)c1cc(C(F)(F)F)ccc1N1CCN(C(=O)[C@@H]2CN(C(C)C)C[C@H]2c2ccc(Cl)cc2)CC1,7.7 nM,63%,67 nM
CC(C)N1C[C@@H](C(=O)N2CCN(c3ccccc3Cn3cccn3)CC2)[C@H](c2ccc(Cl)cc2)C1,490 nM,–,–
COc1ccccc1N1CCN(C(=O)[C@@H]2CN(C(C)C)C[C@H]2c2ccc(Cl)cc2)CC1,520 nM,–,–
CC(C)[C@H](N)c1cccc(F)c1N1CCN(C(=O)[C@@H]2CN(C(C)C)C[C@H]2c2ccc(Cl)cc2)CC1,21 nM,68%,270 nM
CC(C)N1C[C@@H](C(=O)N2CCN(c3ccccc3CN(C)C3CNC3)CC2)[C@H](c2ccc(Cl)cc2)C1,240 nM,–,–
CC(C)C[C@H](NC(=O)[C@H](C)N)c1cc(C(F)(F)F)ccc1N1CCN(C(=O)[C@@H]2CN(C(C)C)C[C@H]2c2ccc(Cl)cc2)CC1,47 nM,104%,210 nM
CC(C)N1C[C@@H](C(=O)N2CCN(c3ccccc3CNCCN)CC2)[C@H](c2ccc(Cl)cc2)C1,230 nM,–,–
CC(C)C[C@H](N)c1cc(C(F)(F)F)ccc1N1CCN(C(=O)[C@@H]2CN(C(C)C)C[C@H]2c2ccc(Cl)cc2)CC1,26 nM,94%,1100 nM
CC(C)N1C[C@@H](C(=O)N2CCN(c3ccccc3CN3CCN(C)CC3)CC2)[C@H](c2ccc(Cl)cc2)C1,840 nM,–,–
CC(C)N1C[C@@H](C(=O)N2CCN(c3ccccc3C#N)CC2)[C@H](c2ccc(Cl)cc2)C1,4800 nM,–,–
Cc1ccc(N2CCN(C(=O)[C@@H]3CN(C(C)C)C[C@H]3c3ccc(Cl)cc3)CC2)c([C@@H](NC(=O)CCN(C)C)C(C)C)c1,4.7 nM,102%,16 nM
COCCN(C)Cc1ccccc1N1CCN(C(=O)[C@@H]2CN(C(C)C)C[C@H]2c2ccc(Cl)cc2)CC1,320 nM,–,–
CC(C)N1C[C@@H](C(=O)N2CCN(c3ccccc3Cn3cncn3)CC2)[C@H](c2ccc(Cl)cc2)C1,320 nM,–,–
CC(C)N1C[C@@H](C(=O)N2CCN(c3ccccc3CN3CCNCC3)CC2)[C@H](c2ccc(Cl)cc2)C1,360 nM,–,–
CC(C)C[C@H](NC(=O)[C@@H](C)N)c1cc(C(F)(F)F)ccc1N1CCN(C(=O)[C@@H]2CN(C(C)C)C[C@H]2c2ccc(Cl)cc2)CC1,4.9 nM,103%,31 nM
CC(C)N1C[C@@H](C(=O)N2CCN(c3ccccc3CN3CCCCC3)CC2)[C@H](c2ccc(Cl)cc2)C1,950 nM,–,–
CC(C)C[C@H](NS(C)(=O)=O)c1cc(C(F)(F)F)ccc1N1CCN(C(=O)[C@@H]2CN(C(C)C)C[C@H]2c2ccc(Cl)cc2)CC1,87 nM,96%,450 nM
Cc1ccc(N2CCN(C(=O)[C@@H]3CN(C(C)C)C[C@H]3c3ccc(Cl)cc3)CC2)c([C@@H](NC(=O)CN(C)C)C(C)C)c1,7.1 nM,100%,170 nM
CC(C)N1C[C@@H](C(=O)N2CCN(c3ccccc3Cn3ccnn3)CC2)[C@H](c2ccc(Cl)cc2)C1,420 nM,–,–
CC(C)CN(Cc1ccccc1N1CCN(C(=O)[C@@H]2CN(C(C)C)C[C@H]2c2ccc(Cl)cc2)CC1)CC(C)C,1100 nM,–,–
CC(C)C[C@H](NC(=O)CN(C)C)c1cc(C(F)(F)F)ccc1N1CCN(C(=O)[C@@H]2CN(C(C)C)C[C@H]2c2ccc(Cl)cc2)CC1,17.3 nM,99%,52 nM

SMILES,Ki (Melanocortin receptor 4 [1]),Intrinsic activity (Melanocortin receptor 4 [2]),EC50 (Melanocortin receptor 4 [3])
CCN(CC)Cc1ccccc1N1CCN(C(=O)[C@@H]2CN(C(C)C)C[C@H]2c2ccc(Cl)cc2)CC1,1200 nM,–,–
CNCCNCc1ccccc1N1CCN(C(=O)[C@@H]2CN(C(C)C)C[C@H]2c2ccc(Cl)cc2)CC1,270 nM,–,–
Cc1ccc(N2CCN(C(=O)[C@@H]3CN(C(C)C)C[C@H]3c3ccc(Cl)cc3)CC2)c([C@@H](N)C(C)C)c1,12 nM,99%,105 nM
CC(C)C[C@H](NC(=O)CCN(C)C)c1cc(C(F)(F)F)ccc1N1CCN(C(=O)[C@@H]2CN(C(C)C)C[C@H]2c2ccc(Cl)cc2)CC1,10 nM,76%,91 nM
CC(C)[C@H](NC(=O)[C@@H](C)N)c1cccc(F)c1N1CCN(C(=O)[C@@H]2CN(C(C)C)C[C@H]2c2ccc(Cl)cc2)CC1,4.4 nM,70%,9 nM
CC(C)N1C[C@@H](C(=O)N2CCN(c3ccccc3CNc3ccccc3N)CC2)[C@H](c2ccc(Cl)cc2)C1,1400 nM,–,–
CC(=O)N[C@H](c1cc(C)ccc1N1CCN(C(=O)[C@@H]2CN(C(C)C)C[C@H]2c2ccc(Cl)cc2)CC1)C(C)C,47 nM,35%,–
CC(C)N1C[C@@H](C(=O)N2CCN(c3ccccc3Cn3ccnc3)CC2)[C@H](c2ccc(Cl)cc2)C1,220 nM,52%,320 nM
CNCC(=O)N[C@H](c1cccc(F)c1N1CCN(C(=O)[C@@H]2CN(C(C)C)C[C@H]2c2ccc(Cl)cc2)CC1)C(C)C,11 nM,114%,16 nM
Cc1nccn1Cc1ccccc1N1CCN(C(=O)[C@@H]2CN(C(C)C)C[C@H]2c2ccc(Cl)cc2)CC1,280 nM,–,–
CC(C)N1C[C@@H](C(=O)N2CCN(c3ccccc3CNc3cccnc3)CC2)[C@H](c2ccc(Cl)cc2)C1,1600 nM,–,–
Cc1cncn1Cc1ccccc1N1CCN(C(=O)[C@@H]2CN(C(C)C)C[C@H]2c2ccc(Cl)cc2)CC1,250 nM,–,–
CC(C)CNCc1ccccc1N1CCN(C(=O)[C@@H]2CN(C(C)C)C[C@H]2c2ccc(Cl)cc2)CC1,510 nM,–,–
CC(C)N1C[C@@H](C(=O)N2CCN(c3ccccc3C=O)CC2)[C@H](c2ccc(Cl)cc2)C1,1150 nM,–,–
CC(C)CN(Cc1ccccc1N1CCN(C(=O)[C@@H]2CN(C(C)C)C[C@H]2c2ccc(Cl)cc2)CC1)C(=O)CCN,450 nM,–,–
CC(C)N1C[C@@H](C(=O)N2CCN(c3ccccc3CNC3CCNCC3)CC2)[C@H](c2ccc(Cl)cc2)C1,190 nM,–,–
CC(C)C[C@H](NC(=O)C1CNC1)c1cc(C(F)(F)F)ccc1N1CCN(C(=O)[C@@H]2CN(C(C)C)C[C@H]2c2ccc(Cl)cc2)CC1,18 nM,80%,6.6 nM
CC(C)C[C@H](NC(=O)CCN)c1cc(C(F)(F)F)ccc1N1CCN(C(=O)[C@@H]2CN(C(C)C)C[C@H]2c2ccc(Cl)cc2)CC1,8.7 nM,95%,4.6 nM
CC(C)C[C@H](NC(=O)CN)c1cc(C(F)(F)F)ccc1N1CCN(C(=O)[C@@H]2CN(C(C)C)C[C@H]2c2ccc(Cl)cc2)CC1,8.9 nM,115%,44 nM
CC(C)N1C[C@@H](C(=O)N2CCN(c3ccccc3Cn3cnnc3)CC2)[C@H](c2ccc(Cl)cc2)C1,580 nM,–,–
CC(C)N1C[C@@H](C(=O)N2CCN(c3ccccc3CN3CCC(N)CC3)CC2)[C@H](c2ccc(Cl)cc2)C1,92 nM,40%,390 nM
CC(C)[C@H](NC(=O)CCN)c1cccc(F)c1N1CCN(C(=O)[C@@H]2CN(C(C)C)C[C@H]2c2ccc(Cl)cc2)CC1,13 nM,100%,6.9 nM
CC(C)N1C[C@@H](C(=O)N2CCN(c3ccccc3CNC3CNC3)CC2)[C@H](c2ccc(Cl)cc2)C1,520 nM,–,–
CC(C)N1C[C@@H](C(=O)N2CCN(c3ccccc3CN)CC2)[C@H](c2ccc(Cl)cc2)C1,1100 nM,–,–
